Measured values: US20250302862A1, “SMALL RNA DRUG FOR INHIBITING ACTIVITY OF CANCER CELLS” (Institute of Basic Medical Sciences Chinese Academy of …, priority 2022, published 2025)

How the values were obtained:
[1] = test system: breast cancer MDA-MB-231 cells; experiment: Concentration-dependent proliferation inhibition, MTS; format: cell-based; settings: gradient 0.01-100 noml/L, MTS after 48 h
Experimental: 1) Breast cancer MCF7 cells, breast cancer MDA-MB-231 cells, gastric cancer AGS cells, pancreatic cancer HS766T cells, pancreatic cancer ASPC-1 cells, and prostate cancer PC-3 cells with a cell density of more than 90% in 10 cm^2 plates were plated in 96-well according to the cell growth rate. Transfection was performed after 12 h, and the groups (3 wells per group) were divided as follows: • blank control group: 20 uL of opti-MEM • negative control group (NC group) and experimental group: • A. 10 uL of opti-MEM and 0.2 uL of iMax were mixed well for 5 min • B. 10 uL of opti-MEM and small RNA were mixed well (the concentration gradient of experimental group was set as: 0.01 noml/L, 0.03 noml/L, 0.1 noml/L, 0.39 noml/L, 0.78 noml/L, 1.56 noml/L, 3.125 noml/L, 6.25 noml/L, 12.5 noml/L, 25 noml/L, 50 noml/L, 100 noml/L; the final concentration of sRNA in NC group was 100 noml/L) • C. solution A and solution B were mixed well and let stand for 15 min, and then was added at a 20 uL system • Note: 100 uL of nuclease-free water was added to 2 nmol of small RNA dry powder for dissolution at a storage concentration of 20 umol/L
2) Detection of cell viability: MTS detection was performed after 48 h.
Formulation of MTS detection solution was as follows: opti-MEM:MTS A solution:MTS B solution=100:20:1. […] Absorbance values at wavelengths of 490 nm and 630 nm were measured in a microplate reader. […]

[2] = test system: pancreatic cancer PANC-1 cells; experiment: Apoptosis detection (Annexin V / PI); format: cell-based, human; settings: 100 nmol/L, jetPRIME, 72 h
Experimental: (§1) 1) PANC-1 cells and BXPC-3 cells with a cell density of more than 90% in 10 cm^2 dishes were plated in 12-well plates according to the cell growth rate, and transfected after 12 h, and the groups were divided as follows: • blank control group (4 wells): 100 uL of jetPRIME Buffer per well • negative control group (NC group) and experimental group (3 wells each): 100 uL of jetPRIME Buffer was mixed well with 3 uL of jetPRIME reagent and 5 uL of small RNA for each well and let stand for 15 min, and then was added to each well at a 100 uL system (final concentration 100 nmol/L) • Note: 100 uL of nuclease-free water was added to 2 nmol of small RNA dry powder for dissolution at a storage concentration of 20 umol/L
(§2) The supernatant and cells were collected after 72 h and washed twice with pre-chilled PBS. The 4 tubes of cells in the blank control group were added respectively with: (1) 200 uL of 1× binding buffer; (2) 200 uL of 1× binding buffer and 5 uL of Annexin V stain; (3) 200 uL of 1× binding buffer and 5 uL of PI stain; (4) 200 uL of 1× binding buffer, 5 uL of Annexin V stain and 5 uL of PI stain. 200 uL of 1× binding buffer, 5 uL of Annexin V stain and 5 uL of PI stain were added to each tube of both the NC group and the experimental group. The mixture was mixed well and filtered through 300 mesh filters. The live cell population and the position of quadrant gate were selected according to the blank control group, and then the apoptosis of the NC group and the experimental group was detected.
as §1, with “mixed” for “mixed well”, “per” for “for each”

[3] = test system: pancreatic cancer BXPC-3 cells; experiment: Apoptosis detection (Annexin V / PI); format: cell-based, human; settings: 100 nmol/L, jetPRIME, 72 h
Experimental: as §1, §2
as §1, with “mixed” for “mixed well”, “per” for “for each”

Row | Substance | proliferation-inhibiting function (cell activity, MTS) [1] | apoptosis [2] | apoptosis [3]
1 | MDM-sRNA-163: small RNA derived from Maytenus hookeri, sequence UGACUCUAGUCCGACUUUGUGAAAUGACU (listed as RNA, chemistry not given here) | concentration-dependent | promotes | promotes
2 | MDM-sRNA-39: small RNA derived from Maytenus hookeri, sequence GGGAUUGUAGUUCAAUUGGUCAGAGCACC (listed as RNA, chemistry not given here) | concentration-dependent | promotes | promotes
